This note sets out measurements from US20230150979A1, “AMIDE-DISUBSTITUTED PYRIDINE OR PYRIDAZINE COMPOUNDS” (BRISTOL-MYERS SQUIBB COMPANY, priority 2019, published 2023).

The subject of the experiment is IFNα-induced STAT phosphorylation (pSTAT5) in human whole blood, CD3 positive population. In words: IFNα-Induced STAT Phosphorylation in Human Whole Blood. Format: cell-based. To be noted: 1 h incubation with compound, 1000 U/mL recombinant human IFNα A/D for 15 min, pSTAT5 (pY694) median fluorescence in CD3 positive cells, read-out: Human WB IFNα-Induced Stat Phosph. (IC50). As for the experimental part: IFNα-Induced STAT Phosphorylation in Human Whole Blood
After an hour long incubation with compound, human whole blood (drawn with either EDTA or ACD-A as anti-coagulant) was stimulated with 1000 U/mL recombinant human IFNα A/D (R&D Systems 11200-2) for 15 min. The stimulation was stopped by adding Fix/Lyse buffer (BD 558049). Cells were stained with a CD3 FITC antibody (BD 555916), washed, and permeabilized on ice using Perm III buffer (BD 558050). Cells were then stained with an Alexa-Fluor 647 pSTAT5 (pY694) antibody (BD 612599) for 30 min prior to analysis on the FACS Canto II. The amount of pSTAT5 expression was quantitated by median fluorescence intensity after gating on the CD3 positive population.

In the case of `COC(=O)Nc1cc(Nc2cccc(-c3ncn(C)n3)c2OC)c(C(N)=O)nn1` [Example 1, Methyl (6-carbamoyl-5-((2-methoxy-3-(1-methyl-1H-1,2,4-triazol-3-yl)phenyl)amino)pyridazin-3-yl)carbamate], the half-maximal inhibitory concentration (IC50) stood at 70 nM.

With `[2H]C([2H])([2H])NC(=O)c1nnc(NC(=O)NCC)cc1Nc1cccc(-c2noc(C)n2)c1OC` [Example 2, 6-(3-ethylureido)-4-((2-methoxy-3-(5-methyl-1,2,4-oxadiazol-3-yl)phenyl)amino)-N-(trideuteromethyl)pyridazine-3-carboxamide], the IC50 worked out at 110 nM.

Turning to `[2H]C([2H])([2H])NC(=O)c1nnc(NC(=O)NC)cc1Nc1cccc(-c2noc(C)n2)c1OC` [Example 3, 4-((2-methoxy-3-(5-methyl-1,2,4-oxadiazol-3-yl)phenyl)amino)-N-(trideuteromethyl)-6-(3-methylureido)pyridazine-3-carboxamide], the IC50 stood at 190 nM.

`[2H]C([2H])([2H])NC(=O)c1nnc(NC(=O)OC)cc1Nc1ccccc1S(C)(=O)=O` [Example 4, methyl (6-((methyl-d3)carbamoyl)-5-((2-(methylsulfonyl)phenyl)amino)pyridazin-3-yl)carbamate]: the concentration for half-maximal inhibition (IC50) is > 10000 nM.

In the case of `[2H]C([2H])([2H])NC(=O)c1nnc(NC(=O)OC)cc1Nc1ccccc1NS(=O)(=O)C1CC1` [Example 5, methyl (5-((2-(cyclopropanesulfonamido)phenyl)amino)-6-((methyl-d3)carbamoyl)pyridazin-3-yl)carbamate], the IC50 is 750 nM.

With `CNC(=O)c1cnc(NC(=O)Nc2ccccc2)cc1Nc1ccccc1S(C)(=O)=O` [Example 6, N-methyl-4-((2-(methylsulfonyl)phenyl)amino)-6-(3-phenylureido)nicotinamide], the IC50 is > 10000 nM.

Consider `[2H]C([2H])([2H])NC(=O)c1nnc(NC(N)=O)cc1Nc1cccc(-c2ncn(C)n2)c1OC` [Example 7, 4-((2-methoxy-3-(1-methyl-1H-1,2,4-triazol-3-yl)phenyl)amino)-N-(methyl-d3)-6-ureidopyridazine-3-carboxamide], for which the IC50 is 320 nM.

Turning to `[2H]C([2H])([2H])NC(=O)c1cnc(NC(=O)OCC)cc1Nc1cccc(-c2noc(C)n2)c1OC` [Example 8], the IC50 amounted to 300 nM.

As to `CCNC(=O)Nc1cc(Nc2ccccc2S(C)(=O)=O)c(C(=O)NC)cn1` [Example 9], the IC50 worked out at 1100 nM.

On to `CNC(=O)Nc1cc(Nc2ccccc2S(C)(=O)=O)c(C(=O)NC)cn1` [Example 10], for which the IC50 was 3690 nM.

With `[2H]C([2H])([2H])NC(=O)c1nnc(NC(=O)NCC#C)cc1Nc1cccc(-c2ncn(C)n2)c1OC` [Example 11], the IC50 came out at 60 nM.

Consider `[2H]C([2H])([2H])NC(=O)c1nnc(NC(=O)N2CCCCC2)cc1Nc1cccc(-c2ncn(C)n2)c1OC` [Example 12], for which the IC50 was 610 nM.

For `[2H]C([2H])([2H])NC(=O)c1nnc(NC(=O)OC)cc1Nc1cccc(-c2noc(COC)n2)c1OC` [Example 14], the concentration for half-maximal inhibition (IC50) turned out to be 1100 nM.

For `[2H]C([2H])([2H])NC(=O)c1nnc(NC(=O)NCC)cc1Nc1ccccc1S(C)(=O)=O` [Example 15], the IC50 was 520 nM.

As for `[2H]C([2H])([2H])NC(=O)c1nnc(NC(=O)NCC)cc1Nc1cccc(-c2ncn(C)n2)c1OC` [Example 16], the IC50 was determined as 20 nM.

Regarding `[2H]C([2H])([2H])NC(=O)c1nnc(NC(=O)NC(C)C)cc1Nc1cccc(-c2ncn(C)n2)c1OC` [Example 18], the IC50 came to 150 nM.

With `[2H]C([2H])([2H])NC(=O)c1nnc(N2CCOC2=O)cc1Nc1cccc(-c2ncc(N3CCOC3=O)cn2)c1OC` [Example 20], the IC50 was > 10000 nM.

For `[2H]C([2H])([2H])NC(=O)c1cnc(NC(=O)OCC)cc1Nc1cccc(-c2nnn(C)n2)c1OC` [Example 21], the IC50 was 420 nM.

Take `[2H]C([2H])([2H])NC(=O)c1nnc(NC(=O)N(C)C)cc1Nc1cccc(-c2ncn(C)n2)c1OC` [Example 22]: the IC50 stood at 220 nM.

Turning to `[2H]C([2H])([2H])NC(=O)c1nnc(NC(=O)NCCCC)cc1Nc1cccc(-c2ncn(C)n2)c1OC` [Example 23], the 50% inhibitory concentration (IC50) amounted to 150 nM.

Regarding `[2H]C([2H])([2H])NC(=O)c1nnc(NC(=O)NC(C)(C)C)cc1Nc1cccc(-c2ncn(C)n2)c1OC` [Example 24], the IC50 worked out at 230 nM.

Take `[2H]C([2H])([2H])NC(=O)c1nnc(NC(=O)Nc2ccccn2)cc1Nc1cccc(-c2ncn(C)n2)c1OC` [Example 25]: the 50% inhibitory concentration (IC50) is 1180 nM.

On to `[2H]C([2H])([2H])NC(=O)c1nnc(NC(=O)N2CCOCC2)cc1Nc1cccc(-c2ncn(C)n2)c1OC` [Example 26], for which the 50% inhibitory concentration (IC50) is 1180 nM.

With `[2H]C([2H])([2H])NC(=O)c1nnc(NC(=O)NCCOC)cc1Nc1cccc(-c2ncn(C)n2)c1OC` [Example 27], the IC50 turned out to be 140 nM.

Regarding `[2H]C([2H])([2H])NC(=O)c1nnc(NC(=O)N2CCNCC2)cc1Nc1cccc(-c2ncn(C)n2)c1OC` [Example 28], the half-maximal inhibitory concentration (IC50) is > 10000 nM.

In the case of `[2H]C([2H])([2H])NC(=O)c1cnc(NC(=O)OCC)cc1Nc1cccc(-c2ncn(C)n2)c1OC` [Example 29], the IC50 was 110 nM.

`[2H]C([2H])([2H])NC(=O)c1cnc(NC(=O)OC)cc1Nc1cccc(-c2ncn(C)n2)c1OC` [Example 30]: the IC50 was determined as 100 nM.

For the molecule `[2H]C([2H])([2H])NC(=O)c1cnc(NC(=O)OC(C)C)cc1Nc1cccc(-c2ncn(C)n2)c1OC` [Example 32], the IC50 worked out at 200 nM.

With `[2H]C([2H])([2H])NC(=O)c1nnc(NC(=O)NC2CCCCC2)cc1Nc1cccc(-c2ncn(C)n2)c1OC` [Example 33], the IC50 was 120 nM.

Consider `[2H]C([2H])([2H])NC(=O)c1nnc(NC(=O)Nc2ccccc2)cc1Nc1cccc(-c2ncn(C)n2)c1OC` [Example 34], for which the IC50 stood at 520 nM.

Take `[2H]C([2H])([2H])NC(=O)c1nnc(NC(=O)Nc2cccc(C)c2)cc1Nc1cccc(-c2ncn(C)n2)c1OC` [Example 35]: the IC50 worked out at 500 nM.

`[2H]C([2H])([2H])NC(=O)c1nnc(NC(=O)NCC(C)C)cc1Nc1cccc(-c2ncn(C)n2)c1OC` [Example 36]: the IC50 stood at 150 nM.

Consider `[2H]C([2H])([2H])NC(=O)c1nnc(NC(=O)NCC=C)cc1Nc1cccc(-c2ncn(C)n2)c1OC` [Example 37], for which the IC50 was determined as 60 nM.

In the case of `[2H]C([2H])([2H])NC(=O)c1cnc(NC(=O)OC)cc1Nc1cccc(-c2nnn(C)n2)c1OC` [Example 38], the IC50 came out at 130 nM.

As for `[2H]C([2H])([2H])NC(=O)c1nnc(NC(=O)N(C)CCc2ccccc2)cc1Nc1cccc(-c2ncn(C)n2)c1OC` [Example 39], the IC50 stood at 2460 nM.

`[2H]C([2H])([2H])NC(=O)c1nnc(NC(=O)NCc2ccccc2)cc1Nc1cccc(-c2ncn(C)n2)c1OC` [Example 40]: the IC50 was found to be 290 nM.

On to `[2H]C([2H])([2H])NC(=O)c1nnc(NC(=O)OC)cc1Nc1cccc(-c2ncn(C)n2)c1OC` [Example 41], for which the IC50 came out at 210 nM.

Turning to `[2H]C([2H])([2H])NC(=O)c1nnc(NC(=O)N(C)CC)cc1Nc1cccc(-c2ncn(C)n2)c1OC` [Example 42], the IC50 amounted to 350 nM.

Take `[2H]C([2H])([2H])NC(=O)c1nnc(NC(=O)N(C)CCOC)cc1Nc1cccc(-c2ncn(C)n2)c1OC` [Example 43]: the IC50 turned out to be 570 nM.

With `[2H]C([2H])([2H])NC(=O)c1nnc(NC(=O)N(C)CCC)cc1Nc1cccc(-c2ncn(C)n2)c1OC` [Example 44], the IC50 was 330 nM.
